Data on 88 molecules can be found in a melting point compilation (Tetko et al.; mined from patent text by program, amines drawn as free bases though some values may be those of a salt).

SMILES strings stand for the structures.

As for `CCCCCCCNC(=O)Nc1ccccc1C(=O)NCCSc1nc(-c2ccccc2)c(-c2ccccc2)[nH]1`, the melting point fell in the range of 285 to 288 °C.

The molecule `CN(C)C(=S)C(O)c1ccccc1C(F)(F)F` (stereo not drawn) yielded a melting point of 112 to 115 °C.

Consider `CSc1ccc2c(SCc3ccc(N(C)C)cc3)ccnc2c1`, for which the melting point was 168 to 170 °C. The figure for `COC(=O)C(Cc1ccc(Cl)cc1)NC(=O)C1CCC(CNC(=O)OC(C)(C)C)CC1` (stereo not drawn) is 178 to 179 °C. The figure for `CC(=O)Nc1ccc2c(c1)[nH]c(=O)c(=O)n2C` is 390 °C; for `O=C(Nc1ncc(C(=O)NCCO)s1)c1cn(Cc2ccc(Cl)c(Cl)c2)nn1` it is 275 °C; for `CCc1cc(CC)c2ccc(=O)[nH]c2n1` it is 159 to 161 °C. `CC(C)(C)OC(=O)[C@H]1CCCN1S(=O)(=O)c1ccc2c(Cl)cnc(Cl)c2c1` had a melting point of 80 to 82 °C. Take `CS(=O)(=O)c1ccc(-c2cnn(CC(=O)c3ccc(F)cc3F)c(=O)c2-c2ccc(F)cc2)cc1`: the melting point lay in the range of 191 to 192 °C. The figure for `CSCN(C)C(=O)Nc1ccc(Cl)c(Cl)c1` is 103 °C; for `COC(=O)COc1c(Cl)cc(C(=O)CN2CCN(c3ccncc3)CC2)cc1Cl` it is 149 to 150 °C; for `CN1C(=O)CC[C@]2(C)c3ccc(Sc4nc5c(F)cccc5s4)cc3CC[C@@H]12` it is 140 to 145 °C.

`CCOC(=O)N1Cc2sc3ncn(CCCl)c(=O)c3c2C1` gave a melting point of 169 to 171 °C. With `COc1ccc(-c2nc(S(=O)(=O)c3cccs3)[nH]c2-c2ccc(OC)cc2)cc1` the figure was 179 °C; with `N#CC1=C(C2CCNCC2)Nc2n[nH]cc2C1c1ccccc1Cl` (stereo not drawn), 221 °C; with `CNS(=O)(=O)c1ccc(C(=O)C=Cc2cc(-c3cc4ccccc4n3C)c(OC)cc2OC)cc1`, 129 to 131 °C.

In turn, `COc1ccc2c(c1)C(O)(CC#N)C(C)(C)CC2` (stereo not drawn) displayed a melting point of 107 to 108 °C.

As to `COc1ccc(S(=O)(=O)Nc2c(C(=O)O)cc(C#N)c(Cc3ccccc3)c2C)cc1`, the melting point came to 123 °C. With `COc1cccc(CN(C)C)c1SCc1ccccc1` the figure was 69 to 70 °C. Regarding `CC1NC(=Nc2ccccc2N2CCOCC2)NC1C` (stereo not drawn), the melting point was 142 to 143 °C. With `COC(=O)c1ccc(C2=NC(C)(C)Cc3cc(OC)c4c(c32)CC(C)(C)O4)cc1NC(=O)C(F)(F)F` the figure was 146 to 147 °C; with `N#CNC(CSCc1ccccn1)=NCCO`, 68 to 69 °C.

Molecule `CCOC(=O)c1cc(-c2ccc(F)cc2)sc1N` showed a melting point of 98 to 99 °C. `CC(C)(CO)c1cc(NC(=O)C(C)(C)S(=O)(=O)C2CCOCC2)on1` yielded a melting point of 191 to 192 °C. With `N[C@H]1CCN(c2ccc3c(C(=O)NCCc4ccccc4Cl)c(Cl)ccc3n2)C1` the figure was 196 to 198 °C. `CCCCC(Cn1cncn1)(C(=O)O)c1ccc(Cl)cc1` (stereo not drawn): the melting point was 169 to 171 °C. With `Nc1nc2ccccc2c2c1nc(N)n2Cc1ccccc1` the figure was 254 to 256 °C. With `Cc1cc(OCc2ccccc2)c(F)cc1[N+](=O)[O-]` the figure was 95 °C; with `CNS(=O)(=O)Oc1ccc2c(c1)C(C)(C)C(OC)O2` (stereo not drawn), 89 to 91 °C. The molecule `OC[C@H]1O[C@@H](n2cnc3c(NC4CCOC4)ncnc32)[C@@H](O)[C@H]1O` (stereo partly drawn) yielded a melting point of 128 to 130 °C. The figure for `Cc1c(-c2ccncc2)[nH]c(-c2ccncc2)c1S(C)(=O)=O` is 232 to 234 °C. The figure for `COc1cc2ccc(CC(=S)N3CCOCC3)cc2cc1OC` is 158 to 161 °C; for `O=S(=O)(Oc1cccc(O)c1)c1ccc(Cl)c(Cl)c1` it is 107 to 110 °C. The figure for `CCc1sc2nc(=NS(=O)(=O)c3ccc(C)cc3)sn2c1-c1ccc2c(c1)CCCC2` is 151 to 152 °C; for `CC(C(=O)O)c1ccc2oc(Cc3ccc(Cl)cc3)nc2c1` (stereo not drawn) it is 135 to 137 °C. `COc1cc(OC)cc(Sc2ccccc2C(=O)O)c1` came in with a melting point of 182 °C. With `CC(C)(C)OC(=O)Nc1ccn2nc(N3CCOCC3)nc2c1` the figure was 92 to 93 °C. The figure for `CCOC(=O)CCCCOc1ccc(-c2nc(N3CCOCC3)c3sc(CN4CCN(S(C)(=O)=O)CC4)cc3n2)cc1` is 110 to 114 °C; for `NS(=O)(=O)c1ccccc1S(=O)Cc1ccccc1` (stereo not drawn) it is 206 to 209 °C.

The molecule `CN(C)C=NC(=S)Nc1ccccc1` returned a melting point of 139 to 143 °C. The figure for `COc1ccc(S(=O)(=O)N2C(=O)C(CC(=O)N3CCN(c4ccccn4)CC3)(c3ccccc3Cl)c3cc(C)ccc32)c(OC)c1` (stereo not drawn) is 239 °C; for `COCCNC(=O)c1cc(C(=O)OC)c2cc(Cc3ccc(F)cc3)cnc2c1O` it is 165 to 167 °C; for `CCn1c2ccccc2c2cc(C=Cc3ccc([N+](=O)[O-])cc3)ccc21` it is 168 °C. The figure for `Cc1cccc(C)c1N(CCCC(=O)N[C@@H](CO)C(=O)O)C(=O)c1ccc(Cl)cc1` is 147 to 148 °C. On to `COC(=O)c1ccc(OC)cc1S`, for which the melting point was 35 to 37 °C. The figure for `CN1CCN(c2ccc(-c3cnc4[nH]cc(C(=O)N[C@@H](C(=O)N5CC(C#N)C5)C5CC5)c4n3)cc2)CC1` is 178 to 185 °C; for `CCN1CCN(c2ccc(NC(=O)Nc3ccc(Oc4cc(Cl)ncn4)cc3)cc2OC)CC1` it is 170 to 171 °C. The molecule `COc1ccc(-c2ccc3[nH]c4ncc(Cl)cc4c3c2)cc1` came in with a melting point above 220 °C.

On to `CC(c1oc2ccccc2c(=O)c1-c1cccc(F)c1)n1nc(-c2ccc(Cl)c(O)c2)c2c(N)ncnc21` (stereo not drawn), for which the melting point was in the range of 134 to 136 °C. The figure for `COc1ccc2cc([C@H](C)C(=O)OCCOc3ccc(OCCO)cc3)ccc2c1` is 76 to 78 °C; for `CCCCn1nc2c(N)nc3ccccc3c2c1CC(C)(C)O` it is 130 °C; for `CC(C)(C)OC(=O)C(C#N)C(=O)c1cc(F)c(F)c(F)c1F` (stereo not drawn) it is 90 to 92 °C. The figure for `CNc1sc(Cl)cc1C(=O)c1ccccc1F` is 93 to 94 °C; for `CCCCCCC(=O)CCCC=O` it is 33 to 34 °C; for `O=c1c(CCCc2ccncc2)cc2cccnc2n1-c1cccnc1` it is 178 to 180 °C. `CCOC(=O)C(Cc1ccc(Cl)cc1)NC(=S)Nc1ccc(C(C)C)cc1` (stereo not drawn) had a melting point of 73 to 75 °C.

As to `CC(C)(C)c1nc(C=Cc2cccnc2)nc(C(C)(C)C)c1O`, the melting point fell in the range of 150 to 151 °C. With `Cc1nccn2c(-c3ccnc(NCC(C)(C)CO)n3)c(-c3ccc(F)cc3F)nc12` the figure was 174 °C; with `CC(C)(C)OC(=O)N[C@@H](CCC(N)=O)C(=O)N1CCN(Cc2ccccc2)CC1`, 158 to 159 °C; with `CC(C)n1cc(-c2nc(C(N)=O)c(N)nc2-c2cccc(OC(F)(F)F)c2)ccc1=O`, 266 °C. `CCCCCCCCCCCCC(C)COc1ccc(C(=O)O)o1` (stereo not drawn) registered a melting point of 88 to 90 °C. The figure for `Cc1ccc(-c2c(Cl)ccc3c2C=C(C(=O)O)C(C(F)(F)F)O3)cc1` (stereo not drawn) is 218 to 220 °C; for `NC(=O)c1ccc2nc3c(c(=O)n2c1)CCC3=Cc1ccccc1` it is 350 to 357 °C. For the molecule `CCCCc1nc2c(n1Cc1ccc(-c3ccccc3S(=O)(=O)NC(=O)NCCC)cc1)C(=CC(=O)OCC)CCS2`, the melting point amounted to 170 °C. With `O=C(Nc1ccc(Cl)cn1)c1cc(Cl)ccc1NCC1CCN(C2CCOCC2)CC1` the figure was 192 to 194 °C; with `CC(C)(C)OC(=O)N[C@H]1CC[C@H](CC(=O)O)CC1`, 161 to 163 °C.

As to `COc1cc2c(cc1OC(C)C)C(=O)C1c3c(cc(OC(C)C)c(OC)c3-2)CCN1C` (stereo not drawn), the melting point fell in the range of 82 to 84 °C.

The molecule `O=C1NC(N2CCCCC2)=N/C1=C\c1c[nH]c2ncc(Cl)cc12` displayed a melting point of 315 to 320 °C. With `CCCN(CCC)C(=O)CNc1nc(-c2ccccc2)nc(C)c1CC` the figure was 83 to 84 °C; with `C[C@H]1C(=O)C[C@@H]2C[C@H]1OO[C@]2(C)/C=C\c1ccc(Cl)c(Cl)c1`, 135 °C.

As to `CCOC(=O)c1nnc2n1-c1ccccc1C(c1ccccc1Cl)=NC2`, the melting point was 235 to 237 °C. With `C=Cc1ccc2c(n1)COC(c1ccccc1)O2` (stereo not drawn) the figure was 54 to 57 °C; with `COC(=O)c1coc(-c2ncn3c2CN(C)C(=O)c2ccccc2-3)n1`, 264 to 265 °C. With `CCCCc1cc(Cc2ccc(C(=O)O)cc2)c2ccccc2n1` the figure was 158 °C; with `COc1cc2ncnc(N3CCCCCc4ccccc43)c2cc1OC`, 204 to 207 °C. The figure for `NC(=O)c1cc2ccccc2o1` is 165 to 166 °C; for `Cc1noc(-c2nc(-c3c(F)cccc3F)nn2C)c1Cl` it is 94 to 97 °C; for `CC(C)(C)NC(=O)[C@@H]1CCCC[C@H]1C[C@@H](O)[C@H](Cc1ccccc1)NC(=O)[C@H](CC(N)=O)NC(=O)OCc1ccccc1` it is 195 to 199 °C.

As to `CN(C(=O)Cc1cccc2ccccc12)C1c2ccccc2CCC1N1CCCC1` (stereo not drawn), the melting point worked out at 125 °C. In turn, `CC(C)CN(C(=O)N(CCCl)N=O)C1OC(OC2CCCCC2)C(O)C(O)C1O` (stereo not drawn) returned a melting point of 74 to 76 °C. The figure for `Nc1ccc(Cn2cc(C(F)(F)F)ccc2=O)cc1` is 97 to 98 °C; for `CCCCCCSc1[nH]c2cccc3c2c1CC1C3C=C(C)CN1C` (stereo not drawn) it is 199 to 201 °C; for `CC1(C)CC(SCc2c(Cl)nn(C(F)F)c2C(F)(F)F)=NO1` it is 89 to 90 °C.

Molecule `CCOP(=O)(OCC)C(O)c1cccc([N+](=O)[O-])c1` (stereo not drawn) yielded a melting point of 93 to 95 °C. With `CC(=O)Nc1nc(CCc2ccc(NC3=NCCS3)cc2)cs1` the figure was 218 to 220 °C; with `CCOC(=O)CNC(=S)Cc1cnc(C)c(O)c1CO`, 147 to 149 °C. The molecule `C[C@H](O)[C@H](CNC(=O)c1ccccc1)C(=O)O` had a melting point of 99 to 101 °C. With `CN1CCN(S(=O)(=O)c2cccc(NC(=O)c3cnn4c(C(F)F)cc(-c5ccc(Cl)c(Cl)c5)nc34)c2)CC1` the figure was 229 °C.
